Consider 12 compounds from patent US20250019377A1 (JACOBIO PHARMACEUTICALS CO., LTD, priority 2021, published 2025).

The term IC50 denotes the concentration that gives 50% inhibition.

For experiment [1], the target named is T1, K-Ras G12V (Homo sapiens, UniProt P01116, G12V). The experiment in a line: SOS1 catalyzed nucleotide exchange assay (GDP form K-Ras), K-Ras G12V. Particulars: read-out: K-Ras G12V GDP Biochemical Activity (IC50).
Experiment [2] deals with T2, K-Ras WT (Homo sapiens, UniProt P01116). The experiment in a line: SOS1 catalyzed nucleotide exchange assay (GDP form K-Ras), K-Ras WT. Particulars: read-out: K-Ras WT GDP Biochemical Activity (IC50).
T2 sequence (P01116 1-169 isoform P01116-2): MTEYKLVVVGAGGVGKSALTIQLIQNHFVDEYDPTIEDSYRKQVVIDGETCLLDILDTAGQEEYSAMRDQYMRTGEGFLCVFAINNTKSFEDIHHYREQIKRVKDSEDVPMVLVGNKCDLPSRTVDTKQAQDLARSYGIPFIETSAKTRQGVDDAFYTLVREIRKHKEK
In experiment [3] the target is T3, K-Ras G13D (Homo sapiens, UniProt P01116, G13D). The experiment in a line: biochemical.
T3 sequence (P01116 1-169 isoform P01116-2 G13D): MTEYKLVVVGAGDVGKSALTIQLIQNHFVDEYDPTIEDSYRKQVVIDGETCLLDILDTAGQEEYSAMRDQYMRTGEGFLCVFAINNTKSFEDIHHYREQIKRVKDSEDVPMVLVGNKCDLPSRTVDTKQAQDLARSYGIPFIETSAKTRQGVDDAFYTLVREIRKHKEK
The target of experiment [4] is T1, K-Ras G12V. Kind of experiment: biochemical.
In experiment [5] the target is T3, K-Ras G13D. The experiment in a line: biochemical. This is another data set of the same source.
For experiment [6], the system named is p-ERK in SW620 cells (K-Ras G12V). Kind of experiment: Phospho-ERK1/2(THR202/TYR204) HTRF assay, SW620. In kind it is cell-based. Particulars: Homo sapiens, SW-620, 2 h, 2 hours incubation. Background: In TR-FRET formats the signal depends on donor and acceptor labels being close together.
Method: (§1) p-ERK (MAPK pathway) inhibition activity of each of compounds in a variety of K-Ras mutant and K-Ras WT cell lines indicated in Table 23 was evaluated.
(§2) Each of cells in culture medium was seeded in 96-well plates at density indicated in Table 23 and then put in a cell incubator to incubate overnight. The next day, the culture medium was removed and the compound diluted in assay medium was added in each well. […] 10 μL of cell lysates from the 96-well plates were transferred to a 384-well plate (Greiner) containing 2.5 μL/well HTRF® pre-mixed antibodies (Cisbio 64AERPEH). The plate was incubated 4 hours at 25° C. and then read HTRF signals on Tecan Spark multimode microplate reader. The data were analyzed using a 4-parameter logistic model to calculate IC50 values.
Experiment [7] deals with p-ERK in AGS cells (K-Ras G12D). The experiment in a line: Phospho-ERK1/2(THR202/TYR204) HTRF assay, AGS. The experiment is classed as cell-based. Particulars: Homo sapiens, 2 h, 2 hours incubation.
Method: as §1, §2
A further experiment deals with AGS cells (K-Ras G12D). The experiment in a line: 2D cell growth inhibition assay, AGS. Particulars: Homo sapiens, 144 h, 6 days, absolute IC50. In kind it is cell-based.
Experiment [8] relates to AsPC-1 cells (K-Ras G12D). Kind of experiment: 2D cell growth inhibition assay, AsPC-1. The experiment is classed as cell-based. Particulars: Homo sapiens, ASPC1, 144 h, AsPC-1, K-Ras G12D, 6 days, absolute IC50.
Method: (§3) The cell growth inhibition activity of each of compounds was tested by performing cell growth inhibition assays on a variety of K-Ras mutant and K-Ras WT cell lines indicated in Table 25.
Each of cells in culture medium was plated in TC-treated 96-well plates at a density indicated in Table 25 and incubated in a cell incubator overnight. The next day, each of compounds was diluted in culture medium and added to the plates. After 6 days incubation in cell incubator, the cell viability was detected by CellTiter-Glo® Cell Viability Assay kit (Promega).
The next experiment relates to SW620 cells (K-Ras G12V). Kind of experiment: 2D cell growth inhibition assay, SW620. In kind it is cell-based. The settings on record: Homo sapiens, SW-620, 144 h, 6 days, absolute IC50.
For experiment [9], the target named is T2, K-Ras WT. The experiment in a line: biochemical.
Experiment [10] relates to p-ERK in NCI-H747 cells (K-Ras G13D).
Method: as §1, §2
For experiment [11], the system named is NCI-H747 cells (K-Ras G13D).
Method: as §3
(§4) Each of cells in culture medium was plated in ultra-low attachment-coated 96-well plates at a density indicated in Table 25 and incubated in a cell incubator overnight. The next day, each of compounds was diluted in culture medium and added to the plates. After 6 days incubation in cell incubator, the cell viability was detected by CellTiter-Glo® 3D Cell Viability Assay kit (Promega).
Experiment [12] concerns p-ERK in NCI-H358 cells (K-Ras G12C). Kind of experiment: Phospho-ERK1/2(THR202/TYR204) HTRF assay, NCI-H358. The experiment is classed as cell-based. The settings on record: Homo sapiens, 2 hours incubation.
Method: as §1, §2
Experiment [13] concerns p-ERK in TCC-PAN2 cells (K-Ras G12R). Kind of experiment: Phospho-ERK1/2(THR202/TYR204) HTRF assay, TCC-PAN2. Particulars: 2 hours incubation. In kind it is cell-based.
Method: as §1, §2
In experiment [14] the test system is p-ERK in NCI-H460 cells (K-Ras Q61H). Kind of experiment: Phospho-ERK1/2(THR202/TYR204) HTRF assay, NCI-H460. The experiment is classed as cell-based. The settings on record: Homo sapiens, 2 hours incubation.
Method: (§5) p-ERK (MAPK pathway) inhibition activity of each of compounds in a variety of K-Ras mutant and K-Ras WT cell lines indicated in Table 23 was evaluated. MKN-1 with K-Ras WT amplification is also a K-Ras dependent cell line.
as §2
In experiment [15] the test system is p-ERK in MKN-1 cells (K-Ras WT amplification). The experiment in a line: Phospho-ERK1/2(THR202/TYR204) HTRF assay, MKN-1. In kind it is cell-based. The settings on record: Homo sapiens; MKN-1, K-Ras WT, 2 hours incubation.
Method: as §5, §2
The test system of experiment [16] is TCC-PAN2 cells (K-Ras G12R). Kind of experiment: 3D cell growth inhibition assay, TCC-PAN2. The experiment is classed as cell-based. Particulars: 144 h, 6 days, absolute IC50.
Method: as §3, §4
For experiment [17], the system named is NCI-H460 cells (K-Ras Q61H). Kind of experiment: 3D cell growth inhibition assay, NCI-H460. In kind it is cell-based. Particulars: Homo sapiens, 144 h, 6 days, absolute IC50.
Method: as §3, §4
The subject of another experiment is MKN-1 cells (K-Ras WT). The experiment in a line: 3D cell growth inhibition assay, MKN-1. In kind it is cell-based. The settings on record: Homo sapiens, 144 h, MKN-1, K-Ras WT, 6 days, absolute IC50.

Several values for one entry are separate records, joined by “and”; a condition that tells them apart may be missing. Equal entries are not always repeated. Where two headings read alike, the source gives them in different places.

T1 sequence (P01116 1-169 isoform P01116-2 G12V): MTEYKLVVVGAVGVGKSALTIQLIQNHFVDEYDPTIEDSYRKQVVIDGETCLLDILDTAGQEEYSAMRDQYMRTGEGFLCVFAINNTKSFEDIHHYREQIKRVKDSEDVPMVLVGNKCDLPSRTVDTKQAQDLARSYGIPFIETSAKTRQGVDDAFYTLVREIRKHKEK
Method for MKN-1 cells (K-Ras WT): as §3, §4

In the case of `C#Cc1c(F)ccc2cc(O)cc(-c3ncc4c(N5CCCO[C@H](CC#N)C5)nc(OC[C@@]56CCCN5C[C@H](F)C6)nc4c3F)c12` (single isomer, unassigned), the IC50 at K-Ras G12V [1] was 23.7 nM; at K-Ras WT [2] it was 60.2 nM; on K-Ras G13D [3] it was greater than 200 nM; at K-Ras G12V [4] it was 2070 nM; on K-Ras G13D [5], greater than 100 nM.
Take `C#Cc1c(F)ccc2cc(O)cc(-c3ncc4c(N5CCOC[C@@H](OC)C5)nc(OC[C@@]56CCCN5C[C@H](F)C6)nc4c3F)c12` (single isomer, unassigned) [Compound 49A]: the IC50 was 11 nM at K-Ras G12V [1]; 40.2 nM at K-Ras WT [2]; 98.6 nM in experiment [6]; 24.7 nM against K-Ras G13D [3]; 5620 nM against K-Ras G12V [4]; greater than 100 nM against K-Ras G13D [5].
`C#Cc1c(F)ccc2cc(O)cc(-c3ncc4c(N5CCOC[C@H](OC)C5)nc(OC[C@@]56CCCN5C[C@H](F)C6)nc4c3F)c12` (single isomer, unassigned) [Compound 49B]: the concentration for half-maximal inhibition (IC50) is 0.77 nM on K-Ras G12V [1]; 2 nM at K-Ras WT [2]; 62.2 nM in [7]; 19.9 nM in experiment [6]; 41.2 nM in the experiment with AGS cells (K-Ras G12D); 428 nM in experiment [8]. Further, the IC50 in the experiment with SW620 cells (K-Ras G12V) is 54.5 nM; against K-Ras G13D [3], greater than 100 nM; against K-Ras G12V [4], 552 nM; against K-Ras G13D [5] it was greater than 100 nM; on K-Ras WT [9], 144 nM.
`C#Cc1c(F)ccc2cc(O)cc(-c3ccc4c(N5CCCOCC5)nc(OCC5(CN6CCOCC6)CC5)nc4c3F)c12` [Compound 20, 5-ethynyl-6-fluoro-4-(8-fluoro-2-((1-(morpholinomethyl)cyclopropyl)methoxy)-4-(1,4-oxazepan-4-yl)quinazolin-7-yl)naphthalen-2-ol trifluoroacetic acid]: the IC50 turned out to be 8.81 nM at K-Ras G12V [1]; 12.7 nM at K-Ras WT [2]; 53 nM in experiment [7]; 29.3 nM in experiment [6]; 203 nM with AGS cells (K-Ras G12D); 538 nM in experiment [8]. The IC50 was determined as 139 nM in the experiment with SW620 cells (K-Ras G12V), 28.2 nM in [10], 339 nM in [11] and 1630 nM at K-Ras G12V [4].
With `C#Cc1c(F)ccc2cc(O)cc(-c3ncc4c(N5CCCOCC5)nc(OCC56CCCN5CCC6)nc4c3F)c12` [Compound 21, 5-ethynyl-6-fluoro-4-(8-fluoro-4-(1,4-oxazepan-4-yl)-2-((tetrahydro-1H-pyrrolizin-7a(5H)-yl)methoxy)pyrido[4,3-d]pyrimidin-7-yl)naphthalen-2-ol trifluoroacetic acid], the IC50 in experiment [7] turned out to be 10.2 nM; in [6], 135 nM; in the experiment with AGS cells (K-Ras G12D), 51.9 nM; in experiment [8], 1350 nM; in the experiment with SW620 cells (K-Ras G12V), 61.4 nM; in [10], 60.7 nM. This compound returned an IC50 in experiment [11] of 126 nM.
As to `C#Cc1c(F)ccc2cc(O)cc(-c3c(C(F)(F)F)cc4c(N5CCCOCC5)nc(OC[C@@]56CCCN5C[C@H](F)C6)nc4c3F)c12` [Compound 37, 5-ethynyl-6-fluoro-4-(8-fluoro-2-(((2R,7aS)-2-fluorotetrahydro-1H-pyrrolizin-7a(5H)-yl)methoxy)-4-(1,4-oxazepan-4-yl)-6-(trifluoromethyl)quinazolin-7-yl)naphthalen-2-ol], the IC50 stood at 6.71 nM on K-Ras G12V [1]; 9.93 nM on K-Ras WT [2]; 49.2 nM in experiment [7]; 92 nM in [6]; 278 nM in the experiment with AGS cells (K-Ras G12D); 629 nM in experiment [8]. Also, the IC50 in the experiment on SW620 cells (K-Ras G12V) was 330 nM; on K-Ras G12V [4], 147 nM; on K-Ras G13D [5] it was greater than 100 nM; against K-Ras WT [9], 228 nM.
Consider `C#Cc1c(Cl)ccc2cc(O)cc(-c3ncc4c(N5CCCOCC5)nc(OC[C@@]56CCCN5C[C@H](F)C6)nc4c3F)c12` [Compound 39, 6-chloro-5-ethynyl-4-(8-fluoro-2-(((2R,7aS)-2-fluorotetrahydro-1H-pyrrolizin-7a(5H)-yl)methoxy)-4-(1,4-oxazepan-4-yl)pyrido[4,3-d]pyrimidin-7-yl)naphthalen-2-ol trifluoroacetic acid], for which the IC50 turned out to be 3.36 nM in experiment [6]; 1.38 nM in experiment [12]; 156 nM in experiment [13]; 9.92 nM in [14]; 9.92 nM in experiment [15]; 2.09 nM in the experiment on AGS cells (K-Ras G12D). Further, the IC50 worked out at 61.2 nM in experiment [8]; 9.66 nM in the experiment with SW620 cells (K-Ras G12V); 949 nM in experiment [16]; 125 nM in experiment [17]; 7.34 nM in the experiment on MKN-1 cells (K-Ras WT).
As for `C#Cc1c(F)ccc2cc(O)cc(-c3ncc4c(N5CCC6CC5CO6)nc(OC[C@@]56CCCN5C[C@H](F)C6)nc4c3F)c12` (stereo partly shown) [Compound 93], the half-maximal inhibitory concentration (IC50) at K-Ras G12V [1] was 19.9 nM and 4.42 nM; at K-Ras WT [2] it was 56 nM and 13.5 nM; in experiment [6], 51.6 nM; with SW620 cells (K-Ras G12V), 182 nM; on K-Ras G13D [3], greater than 200 nM; at K-Ras G12V [4], 2880 nM and 2030 nM. Moreover, the IC50 against K-Ras G13D [5] was greater than 100 nM; against K-Ras WT [9], 680 nM.
On to `C#Cc1c(F)ccc2cc(O)cc(-c3ncc4c(N5CCCOCC5)nc(OCC5CNCCN5C)nc4c3F)c12` (stereo not shown) [Compound 96, 5-ethynyl-6-fluoro-4-(8-fluoro-2-((1-methyl-piperazin-2-yl)methoxy)-4-(1,4-oxazepan-4-yl)pyrido[4,3-d]pyrimidin-7-yl)naph-thalen-2-ol], for which the IC50 is 18.6 nM at K-Ras G12V [1]; 65.9 nM at K-Ras WT [2]; 114 nM against K-Ras G13D [3]; 2770 nM on K-Ras G12V [4]; greater than 100 nM on K-Ras G13D [5].
On to `C#Cc1c(F)ccc2cc(O)cc(-c3ncc4c(N5CCCOCC5)nc(OCC5CN(C(=O)C=C)CCN5C)nc4c3F)c12` (stereo not shown) [Compound 98, 1-(3-(((7-(8-ethynyl-7-fluoro-3-hydroxy-naphthalen-1-yl)-8-fluoro-4-(1,4-oxazepan-4-yl)pyrido[4,3-d]pyrimidin-2-yl)oxy)methyl)-4-methylpiperazin-1-yl)prop-2-en-1-one], for which the IC50 at K-Ras G12V [1] was 54.5 nM; on K-Ras WT [2], 318 nM; on K-Ras G13D [3], greater than 200 nM; against K-Ras G12V [4], 8190 nM; at K-Ras G13D [5], greater than 100 nM; at K-Ras WT [9], greater than 5000 nM.
For `C#Cc1c(F)ccc2cc(O)cc(-c3ncc4c(N5CCCOCC5)nc(OCC5CC6CCN5CC6)nc4c3F)c12` (stereo not shown) [Compound 99, 5-ethynyl-6-fluoro-4-(8-fluoro-4-(1,4-oxa-zepan-4-yl)-2-(quinuclidin-2-ylmethoxy)pyrido[4,3-d]pyrimidin-7-yl)naphthalen-2-ol], the IC50 at K-Ras G12V [1] is 22.6 nM; on K-Ras WT [2] it was 34.3 nM; against K-Ras G13D [3], greater than 100 nM; at K-Ras G12V [4], 2910 nM; on K-Ras G13D [5], greater than 100 nM.
As to `C#Cc1c(F)ccc2cc(O)cc(-c3ncc4c(N5CCOCC(C)(F)C5)nc(OC[C@@]56CCCN5C[C@H](F)C6)nc4c3F)c12` (stereo partly drawn) [Compound 101, 5-ethynyl-6-fluoro-4-(8-fluoro-4-(6-fluoro-6-methyl-1,4-oxazepan-4-yl)-2-(((2R,7aS)-2-fluorotetrahydro-1H-pyrrolizin-7a(5H)-yl)methoxy)pyrido[4,3-d]pyrimidin-7-yl)naphthalen-2-ol], the IC50 on K-Ras G12V [1] amounted to 2.7 nM; on K-Ras WT [2], 2.56 nM; in experiment [7] it was 7.7 nM; in [6], 95.6 nM; in the experiment with AGS cells (K-Ras G12D), 25.5 nM; in experiment [8], 218 nM. In addition, the IC50 turned out to be 120 nM with SW620 cells (K-Ras G12V), 2.18 nM against K-Ras G13D [3], 298 nM at K-Ras G12V [4] and 194 nM against K-Ras WT [9].
